Data from patent publication US9061030B2, “sGC stimulators” (IRONWOOD PHARMACEUTICALS, INC., priority 2010, dated 2015).

Biological target: T1, Human soluble guanylate cyclase enzyme (hsGC) (Homo sapiens, UniProt Q02108+Q02153)
T1 construct: purchased Enzo Inc. ALX-201-177
T1 sequence (Q02153 1-619): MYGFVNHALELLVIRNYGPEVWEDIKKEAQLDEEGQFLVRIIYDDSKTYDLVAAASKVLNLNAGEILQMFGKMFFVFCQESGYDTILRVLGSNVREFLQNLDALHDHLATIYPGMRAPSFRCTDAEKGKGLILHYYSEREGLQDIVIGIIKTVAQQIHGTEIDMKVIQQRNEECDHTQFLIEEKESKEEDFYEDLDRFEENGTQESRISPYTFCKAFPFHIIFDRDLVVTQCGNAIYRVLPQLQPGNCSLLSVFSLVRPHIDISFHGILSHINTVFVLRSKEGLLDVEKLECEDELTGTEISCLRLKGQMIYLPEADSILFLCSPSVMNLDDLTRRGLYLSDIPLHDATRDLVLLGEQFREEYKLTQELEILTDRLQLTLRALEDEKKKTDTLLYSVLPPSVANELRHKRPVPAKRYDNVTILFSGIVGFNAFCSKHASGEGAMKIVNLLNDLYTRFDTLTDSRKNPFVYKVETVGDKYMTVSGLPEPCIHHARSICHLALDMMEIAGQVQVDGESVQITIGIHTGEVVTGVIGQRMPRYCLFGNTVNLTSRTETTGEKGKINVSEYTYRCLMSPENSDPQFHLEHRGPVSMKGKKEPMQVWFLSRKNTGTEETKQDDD
T1 sequence (Q02108 1-690): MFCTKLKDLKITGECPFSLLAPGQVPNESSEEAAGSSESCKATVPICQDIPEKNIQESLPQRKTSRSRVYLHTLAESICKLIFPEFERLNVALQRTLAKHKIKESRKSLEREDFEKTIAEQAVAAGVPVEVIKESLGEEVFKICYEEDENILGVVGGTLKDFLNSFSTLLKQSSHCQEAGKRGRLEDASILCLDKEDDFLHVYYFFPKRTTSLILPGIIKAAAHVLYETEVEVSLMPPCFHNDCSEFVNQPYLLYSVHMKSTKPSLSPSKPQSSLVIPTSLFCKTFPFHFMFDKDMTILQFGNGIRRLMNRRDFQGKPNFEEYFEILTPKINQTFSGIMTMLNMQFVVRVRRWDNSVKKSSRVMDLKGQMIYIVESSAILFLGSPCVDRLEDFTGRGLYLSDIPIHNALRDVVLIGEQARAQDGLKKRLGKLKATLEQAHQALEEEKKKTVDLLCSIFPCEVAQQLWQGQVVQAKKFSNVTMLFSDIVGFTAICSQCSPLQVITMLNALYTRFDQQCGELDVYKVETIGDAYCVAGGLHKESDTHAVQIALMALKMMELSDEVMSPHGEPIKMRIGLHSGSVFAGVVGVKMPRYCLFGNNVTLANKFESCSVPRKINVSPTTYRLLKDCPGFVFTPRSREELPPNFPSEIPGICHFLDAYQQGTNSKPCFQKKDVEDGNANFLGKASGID
Assay: Purified human sGC enzyme activity assay (with or without SNP)
Format: biochemical
Settings: for sGC Enzyme Activity Increase at 30 μM with SNP / sGC Enzyme Activity Increase at 30 μM without SNP: 30 μM compound
Summary of the method: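 Purified human sGC (5 ng) incubated 30 min at 37° C with compound at 10 or 30 μM, 300 μM GTP, 2 mM MgCl2 and 1 mM IBMX at pH 8.0, with or without 1 μM SNP. cGMP formed was quantified against a standard curve. Results are given as fold-change in specific activity over DMSO (or DMSO+SNP) control.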

[1] = 1 μM SNP, specific activity vs DMSO and SNP
[2] = without SNP, specific activity vs DMSO control

SMILES: Fc1ccccc1Cn1nc(-c2ccccn2)nc1-c1ccccn1 [Compound I-1]
- sGC Enzyme Activity Increase at 10 μM with SNP (10 μM compound, 1 μM SNP, specific activity vs DMSO and SNP): B (B = 1 to <2 fold increase)
- sGC Enzyme Activity Increase at 10 μM without SNP (10 μM compound, without SNP, specific activity vs DMSO control): B (B = 1 to <2 fold increase)
- sGC Enzyme Activity Increase at 30 μM with SNP [1]: C (C = 2 to <5 fold increase)
- sGC Enzyme Activity Increase at 30 μM without SNP [2]: C (C = 2 to <5 fold increase)

SMILES: Fc1ccccc1Cn1nc(-c2ncccn2)nc1-c1cscn1 [Compound I-3]
- sGC Enzyme Activity Increase at 30 μM with SNP [1]: D (D = 5 to <10 fold increase)
- sGC Enzyme Activity Increase at 30 μM without SNP [2]: B (B = 1 to <2 fold increase)

SMILES: Fc1ccccc1Cn1nc(-c2ccccn2)nc1-c1cscn1 [Compound I-4]
- sGC Enzyme Activity Increase at 30 μM with SNP [1]: E (E = 10 to <20 fold increase)
- sGC Enzyme Activity Increase at 30 μM without SNP [2]: C (C = 2 to <5 fold increase)

SMILES: Fc1ccccc1Cn1nc(-c2ccccn2)nc1-c1ncco1 [Compound I-6]
- sGC Enzyme Activity Increase at 30 μM with SNP [1]: D (D = 5 to <10 fold increase)
- sGC Enzyme Activity Increase at 30 μM without SNP [2]: D (D = 5 to <10 fold increase)

SMILES: Fc1ccccc1Cn1nc(-c2ccccn2)nc1-c1cocn1 [Compound I-12, 4-(1-(2-fluorobenzyl)-3-(pyridin-2-yl)-1H-1,2,4-triazol-5-yl)oxazole]
- sGC Enzyme Activity Increase at 30 μM with SNP [1]: E (E = 10 to <20 fold increase)
- sGC Enzyme Activity Increase at 30 μM without SNP [2]: C (C = 2 to <5 fold increase)

SMILES: Fc1ccccc1Cn1nc(-c2ccccn2)nc1-c1nccs1 [Compound I-25]
- sGC Enzyme Activity Increase at 30 μM with SNP [1]: E (E = 10 to <20 fold increase)
- sGC Enzyme Activity Increase at 30 μM without SNP [2]: D (D = 5 to <10 fold increase)

SMILES: Fc1ccccc1Cn1nc(-c2ncccn2)nc1-c1nccs1 [Compound I-30]
- sGC Enzyme Activity Increase at 30 μM with SNP [1]: C (C = 2 to <5 fold increase)
- sGC Enzyme Activity Increase at 30 μM without SNP [2]: B (B = 1 to <2 fold increase)

SMILES: Fc1ccc(-c2nc(-c3nccs3)n(Cc3ccccc3F)n2)nc1 [Compound I-38]
- sGC Enzyme Activity Increase at 30 μM with SNP [1]: E (E = 10 to <20 fold increase)
- sGC Enzyme Activity Increase at 30 μM without SNP [2]: C (C = 2 to <5 fold increase)

SMILES: Fc1ccccc1Cn1nc(-c2cscn2)nc1-c1nccs1 [Compound I-40]
- sGC Enzyme Activity Increase at 30 μM with SNP [1]: D (D = 5 to <10 fold increase)
- sGC Enzyme Activity Increase at 30 μM without SNP [2]: B (B = 1 to <2 fold increase)

SMILES: Fc1ccccc1Cn1nc(-c2nccs2)nc1-c1cscn1 [Compound I-41]
- sGC Enzyme Activity Increase at 30 μM with SNP [1]: E (E = 10 to <20 fold increase)
- sGC Enzyme Activity Increase at 30 μM without SNP [2]: C (C = 2 to <5 fold increase)

SMILES: Nc1ccnc(-c2nc(-c3nccs3)n(Cc3ccccc3F)n2)c1 [Compound I-44]
- sGC Enzyme Activity Increase at 30 μM with SNP [1]: F (F = 20 to <50 fold increase)
- sGC Enzyme Activity Increase at 30 μM without SNP [2]: D (D = 5 to <10 fold increase)

SMILES: Fc1ccccc1Cn1nc(-c2ncccn2)nc1-c1cocn1 [Compound I-46]
- sGC Enzyme Activity Increase at 30 μM with SNP [1]: C (C = 2 to <5 fold increase)
- sGC Enzyme Activity Increase at 30 μM without SNP [2]: B (B = 1 to <2 fold increase)

SMILES: Nc1ccnc(-c2nc(-c3nccs3)n(Cc3ccccc3F)n2)n1 [Compound I-48, 2-(1-(2-fluorobenzyl)-5-(thiazol-2-yl)-1H-1,2,4-triazol-3-yl)pyrimidin-4-amine]
- sGC Enzyme Activity Increase at 30 μM with SNP [1]: D (D = 5 to <10 fold increase)
- sGC Enzyme Activity Increase at 30 μM without SNP [2]: C (C = 2 to <5 fold increase)

SMILES: Fc1ccccc1Cn1nc(-c2ccccn2)nc1-n1cncn1 [Compound I-50, 2′-(2-fluorobenzyl)-5′-(pyridin-2-yl)-2′H-1,3′-bi(1′,2′,4-triazole)]
- sGC Enzyme Activity Increase at 30 μM with SNP [1]: C (C = 2 to <5 fold increase)
- sGC Enzyme Activity Increase at 30 μM without SNP [2]: B (B = 1 to <2 fold increase)

SMILES: Nc1ccnc(-c2nc(-c3cscn3)n(Cc3ccccc3F)n2)c1 [Compound I-53, 2-(1-(2-fluorobenzyl)-5-(thiazol-4-yl)-1H-1,2,4-triazol-3-yl)pyridin-4-amine]
- sGC Enzyme Activity Increase at 30 μM with SNP [1]: F (F = 20 to <50 fold increase)
- sGC Enzyme Activity Increase at 30 μM without SNP [2]: D (D = 5 to <10 fold increase)

SMILES: COC(=O)N(C)c1c(N)nc(-c2nc(-c3nccs3)n(Cc3ccccc3F)n2)nc1N [Compound I-61, methyl 4,6-diamino-2-(1-(2-fluorobenzyl)-5-(thiazol-2-yl)-1H-1,2,4-triazol-3-yl)pyrimidin-5-yl(methyl)carbamate]
- sGC Enzyme Activity Increase at 30 μM with SNP [1]: D (D = 5 to <10 fold increase)
- sGC Enzyme Activity Increase at 30 μM without SNP [2]: C (C = 2 to <5 fold increase)
